Measurements reported in ChEMBL document CHEMBL5532729, “Nonsymmetrically Substituted 1,1'-Biphenyl-Based Small Molecule Inhibitors of the PD-1/PD-L1 Interaction” (ACS Med Chem Lett, 2024).

Molecular target: Programmed cell death protein 1/Programmed cell death 1 ligand 1 (Homo sapiens, UniProt Q9NZQ7)
Experiment: Inhibition of interaction of PD-1 (unknown origin) expressed in Jurkat T cells co-transfected with NFAT response element/PD-L1 (unknown origin) expressed in CHO-K1 cells by reporter bioassay
Assay type: cell-based

Chain of Programmed cell death protein 1/Programmed cell death 1 ligand 1 (Q15116 whole entry): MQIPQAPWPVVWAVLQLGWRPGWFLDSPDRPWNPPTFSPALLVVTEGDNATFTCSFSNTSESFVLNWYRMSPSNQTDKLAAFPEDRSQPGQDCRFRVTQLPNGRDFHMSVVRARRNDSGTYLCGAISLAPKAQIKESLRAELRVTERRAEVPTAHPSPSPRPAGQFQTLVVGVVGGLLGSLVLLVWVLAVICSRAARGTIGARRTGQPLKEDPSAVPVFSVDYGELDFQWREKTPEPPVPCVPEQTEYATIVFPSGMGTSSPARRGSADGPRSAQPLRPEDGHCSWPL
Chain of Programmed cell death protein 1/Programmed cell death 1 ligand 1 (Q9NZQ7 whole entry): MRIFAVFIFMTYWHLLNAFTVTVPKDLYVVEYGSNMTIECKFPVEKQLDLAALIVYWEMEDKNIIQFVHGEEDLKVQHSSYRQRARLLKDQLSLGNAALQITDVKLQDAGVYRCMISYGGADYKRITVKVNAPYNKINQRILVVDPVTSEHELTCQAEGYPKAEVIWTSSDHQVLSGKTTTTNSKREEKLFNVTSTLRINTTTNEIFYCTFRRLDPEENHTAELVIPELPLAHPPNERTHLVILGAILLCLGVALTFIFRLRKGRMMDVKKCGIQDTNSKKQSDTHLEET

Which EC50 does the source give for Cc1c(NC(=O)c2ccc(CNCCO)cn2)cccc1-c1cccc(NC(=O)c2ccc(CNCCO)cn2)c1C here?
The EC50 was 17 nM.
